The values below come from PubChem BioAssay (NCI).

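Exposure lasted 48 hours, with cells grown in 96-well plates and compounds tested at five concentrations. GI50 is the concentration that inhibits growth by half. The concentration for full growth arrest is given as TGI.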 A value given as a limit tells only on which side of the number the result lay.

Test systems include ACHN renal; SN12C renal; K-562 leukemia; HL-60(TB) leukemia; SNB-19 CNS; UACC-62 melanoma; HOP-92 NSCLC; MDA-MB-231 breast; SW-620 colon; HOP-62 NSCLC; UACC-257 melanoma.
Holding throughout (experiment): inhibition of tumour cell growth, NCI panel, 48 h

Consider `NCCCn1c2c(c3ccc([N+](=O)[O-])cc3c1=O)C(=O)c1cc(F)ccc1-2`, for which the GI50 is 0.0241 µM with ACHN renal; 0.0439 µM in the experiment with SN12C renal; below 0.0205 µM in the experiment on K-562 leukemia; below 0.016 µM with HL-60(TB) leukemia; 0.0589 µM with SNB-19 CNS; 0.036 µM in the experiment with UACC-62 melanoma. Moreover, the GI50 with HOP-92 NSCLC is 0.0902 µM; with MDA-MB-231 breast, 0.422 µM. The TGI in the experiment with ACHN renal came out at 0.142 µM; with SN12C renal, 0.805 µM; in the experiment with K-562 leukemia it was 0.331 µM; in the experiment on HL-60(TB) leukemia, 0.166 µM; in the experiment with SNB-19 CNS it was 1.52 µM; in the experiment with UACC-62 melanoma, 0.165 µM. Moreover, the TGI with HOP-92 NSCLC worked out at 0.845 µM; in the experiment on MDA-MB-231 breast, 1.24 µM.
For the compound `CCP(=O)(CC)C(Cl)(Cl)C(O)C(Cl)(Cl)Cl` (stereo not given), the TGI in the experiment on ACHN renal, in the experiment with SW-620 colon, in the experiment with SN12C renal, with K-562 leukemia, in the experiment with HL-60(TB) leukemia and in the experiment on SNB-19 CNS was above 100 µM in each case. Further, the TGI in the experiment with HOP-62 NSCLC, in the experiment with UACC-257 melanoma, in the experiment with HOP-92 NSCLC and in the experiment with MDA-MB-231 breast was above 100 µM each time.
For `O=C1/C(=C/c2ccc(Cl)cc2)N=C(c2ccccc2)N1/N=C/c1ccccc1O`, the TGI is 21.2 µM in the experiment on ACHN renal; above 100 µM in the experiment on SW-620 colon; above 100 µM with SN12C renal; 31 µM in the experiment with K-562 leukemia; above 100 µM in the experiment with HL-60(TB) leukemia; above 100 µM in the experiment with SNB-19 CNS. The TGI in the experiment on UACC-62 melanoma is 30.3 µM; with HOP-62 NSCLC it was 5.21 µM; in the experiment on UACC-257 melanoma it was above 100 µM; in the experiment on HOP-92 NSCLC, 32.9 µM; in the experiment on MDA-MB-231 breast it was 63.3 µM.
As for `CN1C(=O)CN2C(Cl)(Cl)C2(c2ccccc2)c2cc(Cl)ccc21` (stereo not given), the TGI in the experiment on ACHN renal, in the experiment with SW-620 colon, with SN12C renal, in the experiment with K-562 leukemia, in the experiment with UACC-62 melanoma and in the experiment with HOP-62 NSCLC was above 100 µM each time. Besides, the TGI with UACC-257 melanoma is above 100 µM; in the experiment on HOP-92 NSCLC, 88.2 µM.
